From patent US12552787B2, “Quinazoline compound” (MEDSHINE DISCOVERY INC., priority 2020, dated 2026)
Like-named read-outs stand apart in the source and are kept apart here.

What was measured:
[1] = biological target: T1, KRAS(G12C) and SOS1 binding (Homo sapiens, UniProt Q07889); test: KRAS (G12C) and SOS1 binding assay (HTRF); details: 25° C., 60 minutes, read-out: IC50, inhibitory activity on KRAS(G12C) and SOS1 binding
T1 sequence (Q07889 564-1049): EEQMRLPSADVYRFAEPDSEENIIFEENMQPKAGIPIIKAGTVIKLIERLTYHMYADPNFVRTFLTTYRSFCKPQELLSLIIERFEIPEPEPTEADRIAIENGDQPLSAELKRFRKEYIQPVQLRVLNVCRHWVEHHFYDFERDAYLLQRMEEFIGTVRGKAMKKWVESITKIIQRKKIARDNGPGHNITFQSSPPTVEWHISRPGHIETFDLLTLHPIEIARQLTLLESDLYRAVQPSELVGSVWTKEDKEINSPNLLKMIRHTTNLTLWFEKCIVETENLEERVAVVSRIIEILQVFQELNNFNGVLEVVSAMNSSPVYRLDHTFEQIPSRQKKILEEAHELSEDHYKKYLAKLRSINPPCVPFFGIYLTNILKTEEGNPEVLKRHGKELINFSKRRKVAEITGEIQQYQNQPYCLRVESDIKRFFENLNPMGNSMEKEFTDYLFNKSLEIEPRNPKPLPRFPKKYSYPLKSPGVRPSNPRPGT
Experimental: (§1) 1. Experimental Materials:
Multifunctional microplate reader Nivo5 was purchased from PerkinElmer.
2. Preparation of 1× Buffer:
The buffer for this experiment was the current preparation.
Preparation method: 4-Hydroxyethylpiperazineethanesulfonic acid (Hepes): 5 mM; sodium chloride (NaCl): 150 mM; ethylenediaminetetraacetic acid (EDTA): 10 mM; CO-630 (Igepal): 0.0025%; potassium fluoride (KF): 100 mM; dithiothreitol (DTT): 1 mM; bovine serum albumin (BSA): 0.05%.
• 1) The compounds to be tested were diluted 5-fold with DMSO to the eighth concentration using a row gun, that is, from 1 mM to 0.064 μM. • 2) Each gradient of the compounds to be tested were diluted with 1× buffer into a working solution of 2% DMSO, 5 μL/well was added to the corresponding well, corresponding to a concentration gradient of 20 μM to […], and a double-duplication experiment was set up. The working solution was centrifuged at 1000 rpm for 1 minute. • 3) A mixed working solution of KRAS (G12C) (200 nM) and Mab Anti GST-Eu cryptate (1 ng/μL) was prepared with 1× buffer, then the mixed working solution was incubated at 25° C. for 5 minutes, and 2.5 μL/well was added to the corresponding well. • 4) A mixed working solution of SOS1 (80 nM) and Mab Anti 6HIS-XL665 ([…]) was prepared with 1× buffer, 2.5 μL/well was added to the corresponding well; 2.5 μL of Mab Anti 6HIS-XL665 ([…]) diluent was added to the blank well (Blank), at this time the final concentration gradient of the compounds was 10 μM diluted to 0.64 nM, KRAS (G12C) ([…]), MAb Anti GST-Eu cryptate (0.25 ng/μL), SOS1 (20 nM), Mab Anti 6HIS-XL665 (2 g/μL), and the reaction system was placed at 25° C. for 60 minutes. A multi-label analyzer was used for reading HTRF after the reaction was completed. 4. Data Analysis:
Using the equation (Sample−Min)/(Max−Min)×100% to convert the raw data into inhibition rate, and the value of IC50 might be obtained by curve fitting with four parameters (obtained by “Log(inhibitor) vs. response-Variable slope” mode in GraphPad Prism). Table 1 provides the inhibitory activity of the compounds of the present disclosure on KRAS(G12C) and SOS1 binding.

A427 cells = test: In vitro anti-proliferation assay of A427 cells (KRAS G12D); assay type: cell-based; details: Homo sapiens, A-427, 336 h; A427 cells in agarose gel, 14 days, Almar blue; read-out: IC50, inhibitory activity on the proliferation of A427 cells
From the text: as §1
EMEM culture medium, fetal bovine serum, penicillin/streptomycin antibiotics were purchased from Wisent, and low melting point agarose was purchased from Sigma. Almar blue reagent was purchased from Invitrogen. A427 cell line was purchased from Nanjing Cobioer Biotechnology Co., Ltd. Envision multi-label analyzer (PerkinElmer).
• 1) A427 cells were planted in a 96-well U-shaped plate, and the low melting point agarose was first prepared into a 2% mother solution. When used, the agarose mother solution was first heated in a microwave oven to completely melt, and then placed in a 42° C. water bath to keep the agarose in a liquid state. The gel was added to a serum-containing medium to prepare a gel concentration of 0.6% as the base gel, and spread into a 96-well U-shaped plate at 50 μL per well. After the base gel was solidified, 2% gel was added to a cell-containing medium to prepare a gel concentration of 0.4% of cell-containing top gel with a cell density of 4×10^4 cells/mL, which was added to a 96-well U-shaped plate spread with base gel at 75 μL per well with a cell density of 3000 cells per well. After the top gel was solidified, the cell plate was incubated overnight in a CO2 incubator. • 2) On the day of adding the compounds, 85 μL of liquid medium was added to the 96-well U-shaped plate in which the cells were spread. The compounds to be tested were diluted 3-fold with a row gun to the ninth concentration, that is, from 6 mM to 0.9 μM, and a double-duplication experiment was set up. 97 μL of culture medium was added to a middle plate, and then 2.5 μL of gradient diluted compound per well was transferred to the middle plate according to the corresponding position. After being thoroughly mixed, 40 μL per well was transferred to the cell plate. The concentration range of the compound transferred to the cell plate was 30 μM to 4.5 nM. […] A multi-label analyzer was used for reading. […]

[2] = Pharmacokinetic study in mice; assay type: in vivo; details: mouse, plasma; for AUC(0-t): read-out: AUC0-24 h
Experimental: The purpose of this experiment is to evaluate the pharmacokinetic behavior of the compounds after a single intravenous injection or intragastric administration in mice. For intravenous injection, the compound was prepared as a clear solution of 0.2 mg/mL, vehicle: 5% DMSO/95% (10% hydroxypropyl-β-cyclodextrin) aqueous solution; for intragastric administration, the compound was prepared as a suspension of 0.3 mg/mL, vehicle: 5% DMSO/95% (10% hydroxypropyl-β-cyclodextrin) aqueous solution.
The concentrations of compounds in plasma were determined by high performance liquid chromatography-tandem mass spectrometry (LC-MS/MS). Retention time of compounds and internal standard (diclofenac), chromatogram acquisition and integration of chromatogram were processed using the software Analyst (Applied Biosystems), and statistics of the data were processed using the software Watson LIMS (Thermo Fisher Scientific) or Analyst (Applied Biosystems). The concentration of analytes in the sample was expressed in ng/mL, with 3 valid digits retained. All values expressed as percentages (for example, % deviation and % coefficient of variation, etc.) were retained to one decimal point. Each calibration curve contained at least 6 concentration levels. The calibration specimen should be prepared using a stock solution from a different source than the quality control sample. The deviation between the calculated concentration of the calibration specimen and the indicated value exceeds ±15.0% (the lower limit of quantification exceeds ±20.0%) and the specimen should be rejected in the regression analysis. The rejected calibration specimens should be less than 25% and each calibration curve should contain at least 6 calibration specimens that meet the acceptance criteria. If the lower and upper limits of quantification calibration specimens need to be rejected, the upper and lower limits of quantification for the analytical batch will be raised and lowered accordingly.
Plasma concentrations were processed using the non-compartmental model of WinNonlin™ Version 6.3 (Pharsight, Mountain View, CA) pharmacokinetic software, and pharmacokinetic parameters were calculated using the linear-log trapezoidal method. The pharmacokinetic parameters to be calculated include but are not limited to (data permitting) T1/2, Vdss, CL, AUC0-24 h of IV group; Cmax, Tmax, AUC0-24 h, oral bioavailability (F %) of PO group.
The relevant pharmacokinetic parameters of the embodiment of the present disclosure in mice intravenously injected at a dose of 1 mg/Kg and intragastrically administered at a dose of 3 mg/Kg are shown in Table 5 below.

[3] = po, intragastric administration, 3 mg/Kg

`C=CC(Nc1nc(C)nc2cc(=O)n(C3CCOCC3)cc12)c1cc(N)cc(C(F)(F)F)c1` (stereo not shown) [Compound 1] showed an IC50 [1] of 0.032 µM.
With `C=CC(Nc1nc(C)nc2cc(=O)n(C3(C)CCOC3)cc12)c1cc(N)cc(C(F)(F)F)c1` (stereo not shown) [Compound 2] the IC50 [1] was 0.026 µM.
With `C=CC(Nc1nc(C)nc2cc(=O)n(C3(CF)CC3)cc12)c1cc(N)cc(C(F)(F)F)c1` (stereo not shown) [Compound 3] the IC50 [1] was 0.025 µM.
Molecule `C=CC(Nc1nc(C)nc2cc(=O)n(C34CCC(O)(CC3)CC4)cc12)c1cc(N)cc(C(F)(F)F)c1` (stereo not shown) [Compound 4] has an IC50 [1] of 0.021 µM.
`C=C[C@@H](Nc1nc(C)nc2cc(=O)n(C3(C(F)F)CC3)cc12)c1cc(C(F)(F)CO)cs1` [Compound 7] showed an IC50 [1] of 0.013 µM.
`C=C[C@@H](Nc1nc(C)nc2cc(=O)n(C3(C(F)F)CC3)cc12)c1cccc(C(F)F)c1F` [Compound 8] gave an IC50 (A427 cells) of no more than 0.1 µM, a clearance ([2]; intravenous injection, 1 mg/Kg) of 1.83 L/h/kg and a half-life ([2]; intravenous injection, 1 mg/Kg) of 40.2 min. For the same molecule, the AUC(0-t) ([2]; intravenous injection, 1 mg/Kg) was 1770 nM·h, the Vd ([2]; intravenous injection, 1 mg/Kg, read-out: Vdss) was 1.84 L/kg and the bioavailability ([2]; oral, intragastric 3 mg/Kg vs intravenous 1 mg/Kg, read-out: F % (oral bioavailability)) was 109%. For the same molecule, the Cmax [2, 3] was 1.39 µM, the Tmax [2, 3] was 60 min and the AUC(0-t) [2, 3] was 4110 nM·h.
`C=C[C@@H](Nc1nc(C)nc2cc(=O)n(C3(C)CCN(C(C)=O)C3)cc12)c1cccc(C(F)F)c1F` (stereo partly shown) [Compound 13] gave an IC50 (A427 cells) of no more than 0.1 µM.
Molecule `C=C[C@@H](Nc1nc(C)nc2cc(=O)n(C3(C(F)F)CCN(C(C)=O)C3)cc12)c1cccc(C(F)F)c1F` (stereo partly shown) [Compound 15] has an IC50 (A427 cells) of no more than 0.1 µM.
